{
  "source": "patent US20030158184A1",
  "about": "“Nitrosated and nitrosylated phosphodiesterase inhibitor compounds, compositions and their uses” (priority 2001, published 2003)",
  "test_system": "human corpus cavernosum tissue",
  "details": "doses of 10 μM and 30 μM; compared with equimolar dose of dipyridamole; tissue contracted with phenylephrine 7×10^−7 M; 0% = phenylephrine contraction, −100% = tone after papaverine 10^−4 M; FIG. 40",
  "method": "The tissue was maintained in a chilled Krebs-bicarbonate solution prior to assay. The tissue was cut into strips of 0.3×0.3×1 cm and suspended in organ chambers for isometric tension measurement. Tissues were incrementally stretched until optimal isometric tension for contraction was obtained. […] At the end of the experiment papaverine (10^−4 M) is added to obtain maximal relaxation. […] Data are expressed as the percent loss in tone from the phenylephrine-induced contraction (0% =phenylephrine contraction; −100%=tone after the administration of papaverine).",
  "data": [
    {"compound": "CC(C)(CC(=O)OCCN(CCOC(=O)CC(C)(C)SN=O)c1nc(N2CCCCC2)c2nc(N(CCOC(=O)CC(C)(C)SN=O)CCOC(=O)CC(C)(C)SN=O)nc(N3CCCCC3)c2n1)SN=O", "note": "[Example 1, 2.6-bis(diethyl(3-methyl-3(nitrosothiol)butyric acid ester)amino)-4.8-dipipendinopyrimido-[5,4d]-pyrimidine]", "values": [
      {"measurement": "relaxation of the phenylephrine-induced contraction (percent loss in tone from the phenylephrine-induced contraction)", "value": "more efficacious"}
    ]}
  ]
}
